Assays:
Type in all cases: in vivo
[1] = tested on: barnyardgrass (Echinochloa crus-galli); test: Test G Pre-Emergence Protocol; details: Echinochloa crus-galli, pre-emergence, 312 h, evaluated after 13 days; for pest or weed control at 15.625 g/ha: 15.625 g ai/ha; for pest or weed control at 15.625 g/ha / pest or weed control at 250 g/ha: read-out: Barnyardgrass damage rating (100=total damage to plant; 0=no damage to plant); for pest or weed control at 62.5 g/ha: 62.5 g ai/ha, 100=total damage to plant, 0=no damage to plant, read-out: Barnyardgrass damage rating; for pest or weed control at 250 g/ha: 250 g ai/ha
Outline: (§1)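 One day after sowing, pots are treated with a spray of test compound formulated in acetone/water 50:50 plus 0.5% Tween 20, giving 15.625, 62.5 or 250 g/ha. Evaluation on a 0–100 damage scale follows 13 days of glasshouse growth.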

corn (Zea mays) [2] = test: Test G Pre-Emergence Protocol; details: Zea mays, pre-emergence, 312 h, evaluated after 13 days; for plant injury at 15.625 g/ha: 15.625 g ai/ha; for plant injury at 15.625 g/ha / plant injury at 250 g/ha: read-out: Corn damage rating (100=total damage to plant; 0=no damage to plant); for plant injury at 62.5 g/ha: 62.5 g ai/ha, 100=total damage to plant, 0=no damage to plant, read-out: Corn damage rating; for plant injury at 250 g/ha: 250 g ai/ha
Outline: as §1

[3] = tested on: giant foxtail (Setaria faberi); test: Test G Pre-Emergence Protocol; details: Setaria faberi, pre-emergence, 312 h, evaluated after 13 days; for pest or weed control at 15.625 g/ha: 15.625 g ai/ha; for pest or weed control at 15.625 g/ha / pest or weed control at 250 g/ha: read-out: Foxtail, Giant damage rating (100=total damage to plant; 0=no damage to plant); for pest or weed control at 62.5 g/ha: 62.5 g ai/ha, 100=total damage to plant, 0=no damage to plant, read-out: Foxtail, Giant damage rating; for pest or weed control at 250 g/ha: 250 g ai/ha
Outline: as §1

[4] = tested on: ivy-leaved morning glory (Ipomoea hederacea); test: Test G Pre-Emergence Protocol; details: Ipomoea, pre-emergence, 312 h, evaluated after 13 days; for pest or weed control at 15.625 g/ha: 15.625 g ai/ha; for pest or weed control at 15.625 g/ha / pest or weed control at 250 g/ha: read-out: Morningglory, Ivy-leaved damage rating (100=total damage to plant; 0=no damage to plant); for pest or weed control at 62.5 g/ha: 62.5 g ai/ha, 100=total damage to plant, 0=no damage to plant, read-out: Morningglory, Ivy-leaved damage rating; for pest or weed control at 250 g/ha: 250 g ai/ha
Outline: as §1

[5] = tested on: redroot pigweed (Amaranthus retroflexus); test: Test G Pre-Emergence Protocol; details: Amaranthus retroflexus, pre-emergence, 312 h, evaluated after 13 days; for pest or weed control at 15.625 g/ha: 15.625 g ai/ha; for pest or weed control at 15.625 g/ha / pest or weed control at 250 g/ha: read-out: Pigweed, Redroot damage rating (100=total damage to plant; 0=no damage to plant); for pest or weed control at 62.5 g/ha: 62.5 g ai/ha, 100=total damage to plant, 0=no damage to plant, read-out: Pigweed, Redroot damage rating; for pest or weed control at 250 g/ha: 250 g ai/ha
Outline: as §1

[6] = tested on: velvetleaf (Abutilon theophrasti); test: Test G Pre-Emergence Protocol; details: Abutilon theophrasti, pre-emergence, 312 h, evaluated after 13 days; for pest or weed control at 15.625 g/ha: 15.625 g ai/ha; for pest or weed control at 15.625 g/ha / pest or weed control at 250 g/ha: read-out: Velvetleaf damage rating (100=total damage to plant; 0=no damage to plant); for pest or weed control at 62.5 g/ha: 62.5 g ai/ha, 100=total damage to plant, 0=no damage to plant, read-out: Velvetleaf damage rating; for pest or weed control at 250 g/ha: 250 g ai/ha
Outline: as §1

[7] = tested on: barnyardgrass (Echinochloa crus-galli); test: Test G Post-Emergence Protocol; details: Echinochloa crus-galli, post-emergence, 312 h, read-out: Barnyardgrass damage rating; for pest or weed control at 15.625 g/ha: 15.625 g ai/ha, evaluated after 13 days (100=total damage to plant; 0=no damage to plant); for pest or weed control at 62.5 g/ha: 62.5 g ai/ha; for pest or weed control at 62.5 g/ha / pest or weed control at 250 g/ha: evaluated after 13 days, 100=total damage to plant, 0=no damage to plant; for pest or weed control at 250 g/ha: 250 g ai/ha
Outline: (§2)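 Values are percent visual injury at 13 days after treatment (0 none, 100 total). Treatment was a post-emergence spray at 15.625, 62.5 or 250 g/ha on 8-day-old pot plants kept at 24/16 °C.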

corn (Zea mays) [8] = test: Test G Post-Emergence Protocol; details: Zea mays, post-emergence, 312 h, read-out: Corn damage rating; for plant injury at 15.625 g/ha: 15.625 g ai/ha, evaluated after 13 days (100=total damage to plant; 0=no damage to plant); for plant injury at 62.5 g/ha: 62.5 g ai/ha; for plant injury at 62.5 g/ha / plant injury at 250 g/ha: evaluated after 13 days, 100=total damage to plant, 0=no damage to plant; for plant injury at 250 g/ha: 250 g ai/ha
Outline: as §2

[9] = tested on: giant foxtail (Setaria faberi); test: Test G Post-Emergence Protocol; details: Setaria faberi, post-emergence, 312 h, read-out: Foxtail, Giant damage rating; for pest or weed control at 15.625 g/ha: 15.625 g ai/ha, evaluated after 13 days (100=total damage to plant; 0=no damage to plant); for pest or weed control at 62.5 g/ha: 62.5 g ai/ha; for pest or weed control at 62.5 g/ha / pest or weed control at 250 g/ha: evaluated after 13 days, 100=total damage to plant, 0=no damage to plant; for pest or weed control at 250 g/ha: 250 g ai/ha
Outline: as §2

[10] = tested on: ivy-leaved morning glory (Ipomoea hederacea); test: Test G Post-Emergence Protocol; details: Ipomoea, post-emergence, 312 h, read-out: Morningglory, Ivy-leaved damage rating; for pest or weed control at 15.625 g/ha: 15.625 g ai/ha, evaluated after 13 days (100=total damage to plant; 0=no damage to plant); for pest or weed control at 62.5 g/ha: 62.5 g ai/ha; for pest or weed control at 62.5 g/ha / pest or weed control at 250 g/ha: evaluated after 13 days, 100=total damage to plant, 0=no damage to plant; for pest or weed control at 250 g/ha: 250 g ai/ha
Outline: as §2

[11] = tested on: redroot pigweed (Amaranthus retroflexus); test: Test G Post-Emergence Protocol; details: Amaranthus retroflexus, post-emergence, 312 h, read-out: Pigweed, Redroot damage rating; for pest or weed control at 15.625 g/ha: 15.625 g ai/ha, evaluated after 13 days (100=total damage to plant; 0=no damage to plant); for pest or weed control at 62.5 g/ha: 62.5 g ai/ha; for pest or weed control at 62.5 g/ha / pest or weed control at 250 g/ha: evaluated after 13 days, 100=total damage to plant, 0=no damage to plant; for pest or weed control at 250 g/ha: 250 g ai/ha
Outline: as §2

[12] = tested on: velvetleaf (Abutilon theophrasti); test: Test G Post-Emergence Protocol; details: Abutilon theophrasti, post-emergence, 312 h, read-out: Velvetleaf damage rating; for pest or weed control at 15.625 g/ha: 15.625 g ai/ha, evaluated after 13 days (100=total damage to plant; 0=no damage to plant); for pest or weed control at 62.5 g/ha: 62.5 g ai/ha; for pest or weed control at 62.5 g/ha / pest or weed control at 250 g/ha: evaluated after 13 days, 100=total damage to plant, 0=no damage to plant; for pest or weed control at 250 g/ha: 250 g ai/ha
Outline: as §2

Question: What does the source list for CN1C[C@H](c2ccc(F)c(C#N)c2)[C@@H](C(=O)Nc2ccccc2S(C)(=O)=O)C1=O (racemic) [Compound 1798]?
Answer: pest or weed control at 15.625 g/ha [1]: 0%; pest or weed control at 62.5 g/ha [1]: 0%; pest or weed control at 250 g/ha [1]: 10%; plant injury at 15.625 g/ha (corn (Zea mays) [2]): 0%; plant injury at 62.5 g/ha (corn (Zea mays) [2]): 0%; plant injury at 250 g/ha (corn (Zea mays) [2]): 0%; pest or weed control at 15.625 g/ha [3]: 0%; pest or weed control at 62.5 g/ha [3]: 10%; pest or weed control at 250 g/ha [3]: 30%; pest or weed control at 15.625 g/ha [4]: 0%; pest or weed control at 62.5 g/ha [4]: 0%; pest or weed control at 250 g/ha [4]: 0%; pest or weed control at 15.625 g/ha [5]: 0%; pest or weed control at 62.5 g/ha [5]: 0%; pest or weed control at 250 g/ha [5]: 20%; pest or weed control at 15.625 g/ha [6]: 0%; pest or weed control at 62.5 g/ha [6]: 0%; pest or weed control at 250 g/ha [6]: 10%; pest or weed control at 15.625 g/ha [7]: 0%; pest or weed control at 62.5 g/ha [7]: 0%; pest or weed control at 250 g/ha [7]: 0%; plant injury at 15.625 g/ha (corn (Zea mays) [8]): 0%; plant injury at 62.5 g/ha (corn (Zea mays) [8]): 0%; plant injury at 250 g/ha (corn (Zea mays) [8]): 0%; pest or weed control at 15.625 g/ha [9]: 0%; pest or weed control at 62.5 g/ha [9]: 20%; pest or weed control at 250 g/ha [9]: 10%; pest or weed control at 15.625 g/ha [10]: 0%; pest or weed control at 62.5 g/ha [10]: 0%; pest or weed control at 250 g/ha [10]: 0%; pest or weed control at 15.625 g/ha [11]: 0%; pest or weed control at 62.5 g/ha [11]: 0%; pest or weed control at 250 g/ha [11]: 20%; pest or weed control at 15.625 g/ha [12]: 0%; pest or weed control at 62.5 g/ha [12]: 0%; pest or weed control at 250 g/ha [12]: 0%

Question: What does the source list for Cc1cccc(NC(=O)[C@H]2C(=O)N(C)C[C@@H]2c2ccc(C(F)(F)F)cc2)[n+]1[O-] (racemic) [Compound 1805]?
Answer: pest or weed control at 15.625 g/ha [1]: 0%; pest or weed control at 62.5 g/ha [1]: 0%; pest or weed control at 250 g/ha [1]: 0%; plant injury at 15.625 g/ha (corn (Zea mays) [2]): 0%; plant injury at 62.5 g/ha (corn (Zea mays) [2]): 0%; plant injury at 250 g/ha (corn (Zea mays) [2]): 0%; pest or weed control at 15.625 g/ha [3]: 0%; pest or weed control at 62.5 g/ha [3]: 0%; pest or weed control at 250 g/ha [3]: 10%; pest or weed control at 15.625 g/ha [4]: 0%; pest or weed control at 62.5 g/ha [4]: 0%; pest or weed control at 250 g/ha [4]: 0%; pest or weed control at 15.625 g/ha [5]: 20%; pest or weed control at 62.5 g/ha [5]: 10%; pest or weed control at 250 g/ha [5]: 30%; pest or weed control at 15.625 g/ha [6]: 0%; pest or weed control at 62.5 g/ha [6]: 20%; pest or weed control at 250 g/ha [6]: 20%; pest or weed control at 15.625 g/ha [7]: 0%; pest or weed control at 62.5 g/ha [7]: 0%; pest or weed control at 250 g/ha [7]: 0%; plant injury at 15.625 g/ha (corn (Zea mays) [8]): 0%; plant injury at 62.5 g/ha (corn (Zea mays) [8]): 0%; plant injury at 250 g/ha (corn (Zea mays) [8]): 0%; pest or weed control at 15.625 g/ha [9]: 0%; pest or weed control at 62.5 g/ha [9]: 30%; pest or weed control at 250 g/ha [9]: 40%; pest or weed control at 15.625 g/ha [10]: 0%; pest or weed control at 62.5 g/ha [10]: 30%; pest or weed control at 250 g/ha [10]: 30%; pest or weed control at 15.625 g/ha [11]: 10%; pest or weed control at 62.5 g/ha [11]: 60%; pest or weed control at 250 g/ha [11]: 40%; pest or weed control at 15.625 g/ha [12]: 0%; pest or weed control at 62.5 g/ha [12]: 20%; pest or weed control at 250 g/ha [12]: 30%

Source: patent US12077503B2, “Substituted cyclic amides and their use as herbicides” (FMC CORPORATION, priority 2015, dated 2024)
